Data reported in patent US11976137B2, “Compounds for use as apelin receptor antagonists” (Cambridge Enterprise Limited, priority 2018, dated 2024).
Values joined by “and” are separate entries in the source; they are usually repeats but may differ in a detail not shown here. Equal entries are not always repeated. Where two headings read alike, the source gives them in different places. Positions of bridges follow the written chain, without caps; N, C: chain ends. Non-standard residues stand in square brackets, D forms with d. Residues, ends and D or L forms follow the SMILES beside them. *: point of attachment. Phe(3,4,5-F3) = N[C@@H](Cc1cc(F)c(F)c(F)c1)C(=O)O; Myristoyl = CCCCCCCCCCCCCC(=O)*; Nle = CCCC[C@H](N)C(=O)O; Aib = CC(C)(N)C(=O)O

How the values were obtained:
glioblastoma = conditions: ref. [60], cited from earlier work; for anti-tumor / anti-cancer effects in glioblastoma: models of glioblastoma
human apelin receptor [1] = molecular target: T1, human apelin receptor (Homo sapiens, UniProt P35414); experiment: Cerep radioligand binding assay on CHO-K1 cells expressing the human apelin receptor; set-up: host or cells: CHO-K1
T1 sequence (P35414 1-380): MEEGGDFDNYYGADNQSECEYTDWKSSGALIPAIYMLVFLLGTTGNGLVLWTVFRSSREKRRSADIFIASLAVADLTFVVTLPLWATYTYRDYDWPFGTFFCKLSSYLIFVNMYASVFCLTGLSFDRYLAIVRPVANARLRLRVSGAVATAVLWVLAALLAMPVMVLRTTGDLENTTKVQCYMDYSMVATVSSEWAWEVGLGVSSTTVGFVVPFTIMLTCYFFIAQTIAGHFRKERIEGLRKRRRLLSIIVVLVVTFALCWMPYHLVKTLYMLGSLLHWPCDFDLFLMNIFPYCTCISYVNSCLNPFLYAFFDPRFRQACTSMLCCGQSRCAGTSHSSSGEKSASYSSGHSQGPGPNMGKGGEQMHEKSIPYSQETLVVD
Procedure: Binding assays were performed by Cerep (Celle L'Evescault, France) on Chinese Hamster Ovary (CHO-K1) cells expressing the human apelin receptor. […] The results were expressed as a percent of control specific binding ((measured specific binding/control specific binding)×100) and as a percent inhibition of control specific binding (100−((measured specific binding/control specific binding)×100)) obtained in the presence of the test compounds. […] The inhibition constants (Ki) were calculated using the Cheng Prusoff equation (Ki=IC50/(1+(L/KD)), where L=concentration of radioligand in the assay, and KD=equilibrium dissociation constant of the radioligand for the receptor).

human apelin receptor [2] = molecular target: T1, human apelin receptor; experiment: Competition binding in homogenate of human left ventricle (HLV)
Procedure: Equilibrium was broken by centrifugation (20,000 g for 10 min, 4° C.). Pellets were washed with Tris-HCl buffer (50 mmol/L, pH 7.4, 4° C.), re-centrifuged and bound radioactivity in the final pellets counted. Data from triplicate experiments were analysed using the iterative non-linear curve fitting programs EBDA and LIGAND (KELL package, Biosoft, UK) or GraphPad Prism 6 to derive values of affinity (expressed as either the equilibrium dissociation constant KD or the negative log10 of the dissociation constant, pKi±sem) and receptor density (BMAX±sem in fmoles bound per mg protein).

human apelin receptor [3] = molecular target: T1, human apelin receptor; experiment: DRx β-arrestin assay (PathHunter eXpress AGTRL1 CHO-K1); assay type: cell-based; set-up: host or cells: CHO-K1; conditions: for Kb: DRx β-Arrestin pA2; for bias between cAMP and β-arrestin pathway inhibition: comparison of β-arrestin and cAMP pA2 of Table 3
Procedure: (§1) cAMP (cAMP Hunter™ eXpress AGTRL1 CHO-K1 GPCR Assay, DiscoverX Corporation, Ltd. Birmingham, UK) and β-arrestin (PathHunter® eXpress AGTRL1 CHO-K1 β-Arrestin GPCR Assay, DiscoverX Corporation, Ltd. Birmingham, UK) assays were performed according to the manufacturer's instructions. The cAMP assay measures the canonical signalling pathway through the G-protein. The β-arrestin assay measures the alternative signalling pathway and receptor internalisation.
For recruitment of β-arrestin, CHO-K1 cells artificially expressing the human apelin receptor were seeded in Cell Plating medium into 96-well plates and incubated for 48 hours at 37° C. in 5% CO2. Concentration response curves were constructed to test peptides (1 pmol/L-30 μmol/L) which were diluted in Cell Plating medium and added to the cells for 90 minutes at 37° C. If no response was obtained then test peptides were investigated as antagonists. […] Detection reagents were then added for a 2-hour incubation at room temperature. […] If no agonist response was obtained, test compounds were investigated for antagonist activity by repeating [Pyr]apelin-13 concentration response curves in the absence and presence of a single concentration (1-30 μmol/L of test peptide). Data were analysed as described for the cAMP assay using the Gaddum/Schild EC50 function in GraphPad Prism 6 to determine values of pA2.

human forearm = experiment: Human forearm studies; assay type: in vivo
human apelin receptor [4] = molecular target: T1, human apelin receptor; experiment: DRx cAMP assay (cAMP Hunter eXpress AGTRL1 CHO-K1), forskolin-induced cAMP accumulation; assay type: cell-based; set-up: host or cells: CHO-K1; conditions: for Kb: DRx cAMP pA2, antagonism of [Pyr1]apelin-13 inhibition of forskolin-stimulated cAMP; for DRx cAMP pA2: antagonism of [Pyr1]apelin-13 inhibition of forskolin-stimulated cAMP
Procedure: Antagonist activity at the apelin receptor was measured in two assays.
as §1
Cells were then incubated with a mixture of Lysis Buffer, cAMP Buffer D and Detection Reagents for 1 hour at room temperature, followed by a 3 hour incubation with cAMP Reagent A at room temperature. Chemiluminescence was read using the LumiLITE™ Microplate Reader (DiscoverX). Concentration-response data for agonists, measured in relative light units (RLU), were analysed using a 4 parameter logistic equation in GraphPad Prism 6 (La Jolla, CA, USA) to determine values of potency expressed as the pD2 value (negative logo of the EC50 (where EC50 is the concentration producing half maximal response)), and maximum response (EMAX). Mean data from replicate experiments were normalised as percentage inhibition of forskolin-stimulated cAMP production.

[5] = system: endothelium-denuded saphenous vein; conditions: human tissue, ref. [15]; cited from earlier work
human apelin receptor [6] = molecular target: T1, human apelin receptor; conditions: human cardiac tissue, ref. [15]; cited from earlier work
[7] = [Glp65,Nle75,Tyr77][125I]apelin-13, read-out: Ki (binding affinity at the apelin receptor, Cerep)

Row | DRx β-Arrestin pA2 (human apelin receptor [3]) | Kb (human apelin receptor [3]) | Ki (human apelin receptor [1]; [7]) [nM] | Kb (human apelin receptor [4]) | DRx cAMP pA2 (human apelin receptor [4]) | Molecule | anti-tumor / anti-cancer effects in glioblastoma (glioblastoma) | bias between cAMP and β-arrestin pathway inhibition (human apelin receptor [3]) | further results
1 | 7.68 | 20.9 nM | 19 | 42.7 nM and 77.6 nM | 7.37 | CCCC[C@H](NC(=O)[C@H](CCCNC(=N)N)NC(=O)C(C)(C)NC(=O)[C@H](CCCNC(=N)N)NC(=O)[C@H](CS)NC(=O)[C@H](Cc1c[nH]cn1)NC(=O)[C@H](CCCCN)NC(=O)[C@H](CS)NC(=O)[C@H](CCCC)NC(=O)[C@H](CCCNC(=N)N)NC(=O)[C@@H]1CCCN1C(=O)[C@H](CCCNC(=N)N)NC(=O)[C@@H](N)CS)C(=O)N[C@@H](Cc1cc(F)c(F)c(F)c1)C(=O)O [MM193, CRPR-Nle-CKHCR-Aib-R-Nle-(3,4,5-trifluorophenylalanine)] (H-CRPR[Nle]CKHCR[Aib]R[Nle][Phe(3,4,5-F3)]-OH) | significant anti-cancer effects | – | Ki (human apelin receptor [2]; read-out: HLV pKi (converted)): 759 nM; antagonism of [pyr1]apelin-13 mediated β-arrestin recruitment (human apelin receptor [3]; 1 μM, FIG. 1a): antagonised by addition of MM193 in a competitive manner; DRx β-Arrestin pA2 (human apelin receptor [3]; cho-k1 cells, 90 min): pA2 = 7.68; antagonism of [pyr1]apelin-13 inhibition of forskolin stimulated cAMP accumulation (human apelin receptor [4]; 1 μM, FIG. 1b): antagonised by addition of MM193 in a competitive manner
2 | 8.96 | 1.1 nM and 3.16 nM | 13 | – | 9.66 | CCCCCCCCCCCCCC(=O)N[C@@H](CS)C(=O)N[C@@H](CCCNC(=N)N)C(=O)N1CCC[C@H]1C(=O)N[C@@H](CCCNC(=N)N)C(=O)N[C@@H](CCCC)C(=O)N[C@@H](CS)C(=O)N[C@@H](CCCCN)C(=O)N[C@@H](Cc1c[nH]cn1)C(=O)N[C@@H](CS)C(=O)N[C@@H](CCCNC(=N)N)C(=O)NC(C)(C)C(=O)N[C@@H](CCCNC(=N)N)C(=O)N[C@@H](CCCC)C(=O)N[C@@H](Cc1cc(F)c(F)c(F)c1)C(=O)O [MM300, Myristoyl-CRPR-Nle-CKHCR-Aib-R-Nle-(3,4,5-trifluorophenylalanine)] (Myristoyl-CRPR[Nle]CKHCR[Aib]R[Nle][Phe(3,4,5-F3)]-OH; C-terminus assumed) | – | bias towards either C-AMP | –
3 | – | 2.69 nM and 2.29 nM | 17 | 20 nM and 55 nM | – | CCCC[C@H](NC(=O)[C@H](CCCNC(=N)N)NC(=O)C(C)(C)NC(=O)[C@H](CCCNC(=N)N)NC(=O)[C@H](CS)NC(=O)[C@H](CCCCN)NC(=O)[C@H](Cc1c[nH]cn1)NC(=O)[C@H](CS)NC(=O)[C@H](CCCC)NC(=O)[C@H](CCCNC(=N)N)NC(=O)[C@@H]1CCCN1C(=O)[C@H](CCCNC(=N)N)NC(=O)[C@@H](N)CS)C(=O)N[C@@H](Cc1cc(F)c(F)c(F)c1)C(=O)O [MM302, CRPR-Nle-CHKCR-Aib-R-Nle-(3,4,5-trifluorophenylalanine)] (H-CRPR[Nle]CHKCR[Aib]R[Nle][Phe(3,4,5-F3)]-OH; N-terminus and C-terminus assumed) | – | almost a log unit of bias towards inhibition of the β-arrestin pathway | –
4 | – | – | – | – | – | Apelin-13(F13A): apelin-13 analogue reported as a functional antagonist, may act as an apelin receptor agonist in vitro | – | – | constriction of endothelium-denuded saphenous vein [5]: effectively constricts; competition for binding with [125I]-(Pyr1)apelin-13 in the left ventricle (human apelin receptor [6]): competes for binding

Row | Molecule | DRx β-Arrestin pA2 (human apelin receptor [3]) | Kb (human apelin receptor [3]) | Ki (human apelin receptor [1]; [7]) [nM] | Kb (human apelin receptor [4]) | DRx cAMP pA2 (human apelin receptor [4]) | anti-tumor / anti-cancer effects in glioblastoma (glioblastoma) | bias between cAMP and β-arrestin pathway inhibition (human apelin receptor [3]) | further results
5 | CC(C)C[C@@H]1NC(=O)[C@H](CCCNC(=N)N)NC(=O)[C@@H]2CCCN2C(=O)[C@H](CCCNC(=N)N)NC(=O)[C@@H](NC(=O)[C@H](Cc2c[nH]cn2)NC(=O)[C@H](CCCCN)NC(=O)[C@@H]2CSSC[C@H](N)C(=O)N[C@@H](CCCNC(=N)N)C(=O)N3CCC[C@H]3C(=O)N[C@@H](CCCNC(=N)N)C(=O)N[C@@H](CC(C)C)C(=O)N2)CSSC[C@@H](C(=O)O)NC1=O [MM54, cyclo(1-6)CRPRLC-KH-cyclo(9-14)CRPRLC] (H-CRPRLCKHCRPRLC-OH; disulfide 1-6, 9-14; N-terminus and C-terminus assumed) | 6.63 | 117 nM and 234 nM | – | – | – | anti-tumor properties | – | combination with the anti-cancer compound tomozolomide (glioblastoma; model of glioblastoma): synergistic properties; Ki (human apelin receptor [1]; Ki (binding affinity at the apelin receptor, Cerep), [Glp65,Nle75,Tyr77][125I]apelin-13): 82 nM; Ki (human apelin receptor [2]; HLV pKi): 275 nM and 355 nM; functional activity in human forearm studies (human forearm): functional agonist activity indicated by vasodilation
